Laboratory results reported in patent EP0182271A2, “Nb-quaternary dibromo derivatives of ajmaline, isoajmaline, sandwicine and isosandwicine, pharmaceutical compositions containing them, intermediates and process for their preparation” (priority 1984, dated 1986).
Read-outs that look alike come from different tables or passages of the source.

Experiments:
[1] = system: ADP-induzierter Plättchenaggregation in PRP-K; experiment: Inhibition of ADP-induced platelet aggregation in platelet-rich rabbit plasma (PRP/K), method of Born; type: cell-based, Kaninchen; conditions: Oryctolagus cuniculus, 10-6 Mol/l ADP, read-out: % Hemmwirkung gegenüber ADP-induzierter Plättchenaggregation in PRP-K
Description: 3. Bestimmung der Hemmwirkung auf durch ADP induzierte Blutplättchenaggregation im blutplättchenreichen Kaninchenblutplasma (PRP/K).
Die in-vitro-Bestimmung der antiaggregatorischen Wirkungen der Substanzen wurde nach der Methode von Born (Nature 194, 927 (1962)), modifiziert für Mikrobestimmungen nach Sim et al (Thromb. Res. 1, 655 (1975)) durchgeführt.
PRP/K wird durch Zentrifugieren von mit Antikoagulanz versetztem Kaninchenblut auf bekannte Weise erhalten. Als Kontrollwerte für die photometrische Bestimmung der Aggregationshemmung werden die optische Dichte des unbehandelten PRP/K (^ß0 % Aggregation) und von PRP/K, in welchem Blutplättchenaggregation durch Behandlung von 10-^6 Mol/1 ? ADP erzeugt wurde (100 % Aggregation), gemessen.
Zur Bestimmung der aggregationshemmmenden Wirkungen der Wirkstoffe werden Proben PRP/K mit einer bestimmten Wirkstoffdosis versetzt und dann mit 10-^6 Mol/1 ADP behandelt. Die Verringerung der optischen Dichte gegenüber der des unbehandelten PRP/K wird gemessen und mit der bei der Behandlung von wirkstoffreiem PRP/K mit 10-^6 Mol/l ADP aufgetretenen optischen Dichteverringerung verglichen. Hieraus wird die durch die eingesetzte Wirkstoffdosis entfaltete Hemmwirkung in % Hemmung der in wirkstoffreiem PRP/K verursachten Aggregation berechnet. Die in diesem Test mit Wirkstoffen der Formel I erhaltenen Ergebnisse werden in der nachstehenden Tabelle II wiedergegeben. Die folgenden Tabellen I und II geben nach den vorstehend beschriebenen Testmethoden erhaltene Ergebnisse wieder. Die für die Verbindungen der Formel I angegebenen Beispielsnummern beziehen sich auf die nachstehenden Herstellungsbeispiele.

[2] = Acute 7-day toxicity in mice after a single p.o. dose; parameters: species or system Maus; conditions: in vivo, po, mouse (male NMRI), 50 % mortality on day 7, probit analysis, read-out: Toxizität LD50
Description: (§1) Beschreibung der pharmakologischen Versuchsmethoden: • 1. Bestimmung der akuten 7-Tage-Toxizität in Mausen. Die akute Toxizität der Wirkstoffe wird in männlichen NMRI-Mäusen (Körpergewicht 18-22 g) nach einmaliger p.o.-Applikation bestimmt. Die LD50 wird als die Dosis in uMol/kg definiert, welcher eine 50 % Mortalität der Tiere am 7. Tag nach der Applikation entspricht. Die LD50-Werte werden durch eine Probit-Analyse errechnet. • 2. Bestimmung der Hemmwirkung der Substanzen auf durch Aconitin-Infusion induzierte Herzrhythmusstörungen in Ratten.

[3] = system: durch Aconitin-Infusion induzierte Herzrhythmusstörungen; experiment: Inhibition of aconitine-infusion-induced cardiac arrhythmias in rats (method of Raschak); type: in vivo, Ratte; conditions: Rattus norvegicus, po, 3 h
Description: as §1
Die Hemmwirkung auf durch Aconitin-Infusion in Ratten verursachte Herzrhythmusstörungcn (Extrasystolen (ES), ventrikuläre Tachykardie (VT) und Kammerflattern (KF)) werden nach der Methode von Raschak (Arzneimittelforsch. 25 (1975), 639-641) bestimmt.
Männliche Ratten mit einem Körpergewicht von 320-400 g werden durch i.p. Applikation von 1,25 g/kg Urethan narkotisiert. Die Tiere werden auf den Rücken gelegt und ihr Elektrokardiogramm wird während des Versuches alle 30 Sekunden gemessen. Den Tieren wird eine i.v. Aconitin-Infusion mit einer Infusionsgeschwindigkeit von 5 µg/kg/min Aconitin und einem Infusionsvolumen von 0,1 ml/min verabreicht. Drei Stunden vor Beginn der Aconitin-Infusion werden den Tieren die Testsubstanzen p.o. in einer Menge von 2 ml/kg Körpergewicht 2%-iger Tylose-Lösung verabreicht. Einer Kontrollgruppe wird nur die Tylose-Lösung verabreicht. Die Infusionsdauer bis zum Auftreten der verschiedenen Herzrhythmusstörungen wird bestimmt.
Antiarrhythmisch wirksame Testverbindungen führen zu einer Verzögerung des Auftretens der Aconitin-induzierten Herzrhythmusstörungen in den behandelten Tieren im Vergleich zu den Kontrolltieren. Aus dem Ausmaß der Verlängerung der Aconitininfusionsdauer und somit der Erhöhung der verabreichten Aconitinmenge, bis zu welcher die Tiere gegen die durch Aconitin induzierten Herzrhythmusstörungen geschützt sind, läßt sich auf die Stärke der antiarrhythmischen Wirksamkeit der Testsubstanzen schließen. Als ED150 wird die Dosis der Testsubstanzen bestimmt, bei welcher die jeweiligen Herzrhythmusstörungen erst nach der Verlängerung der Aconitinfusionsdauer auf 150 % auftreten.

[4] = read-out: Hemmwirkung gegenüber aconotininduzierten Herzrhythmusstörungen ED150 ES
[5] = read-out: Hemmwirkung gegenüber aconotininduzierten Herzrhythmusstörungen ED150 KF
[6] = read-out: Hemmwirkung gegenüber aconotininduzierten Herzrhythmusstörungen ED150 VT

Compound | inhibition at 50 µg/mL ([1]; dose 50 µg/ml) | inhibition at 100 µg/mL [1] | LD50 at 168 h [2] | ED150 [3, 4] | ED150 [3, 5] | ED150 [3, 6]
CCC1C2CC3C4N(C)c5c(Br)cc(Br)cc5C45CC(C2C5O)[N+]3(C)C1O (stereo not shown) [Beispiel 16] | 81% |  |  |  |  | 
CCC1C2CC3C4N(C)c5c(Br)cc(Br)cc5C45CC(C2C5O)[N+]3(CCCN2CCOCC2)C1O (stereo not shown) [Beispiel 8, Nb-(3-Morpholinopropyl)-10,12-dibromisoajmalinium-chlorid] |  | 100% |  |  |  | 
CCC1C2CC3C4N(C)c5c(Br)cc(Br)cc5C45CC(C2C5O)[N+]3(CCN2CCOCC2)C1O (stereo not shown) [Beispiel 62] |  | 100% | 379 µmol/kg | 11 µmol/kg | 13 µmol/kg | 11 µmol/kg
CCC1C2CC3C4N(C)c5c(Br)cc(Br)cc5C45CC(C2C5O)[N+]3(CCC(C)C)C1O (stereo not shown) [Beispiel 2, Nb-(3-Methylbutyl)-10,12-dibromajmalinium-chlorid] |  |  | 277 µmol/kg | 9 µmol/kg | 11 µmol/kg | 6 µmol/kg
CCC1C2CC3C4N(C)c5c(Br)cc(Br)cc5C45CC(C2C5O)[N+]3(C)C1O (stereo not shown) [Beispiel 12, Nb-Methyl-10,12-dibromisosandwicinium-hydrogenfumarat] |  | 83% | 2400 µmol/kg | 49 µmol/kg | 58 µmol/kg | 64 µmol/kg
